# Experimental data: publication PMC8379219 (Nature Communications, 2021)
# Where “and” joins values, the source holds several entries; their conditions need not be identical. Equal values may be shown once. Entries after “also recorded” stand apart in the source; their conditions may differ. Read-outs that look alike come from different tables or passages of the source.
# Assays:
# SERT WT [1] = molecular target: T1, SERT WT (Homo sapiens, UniProt P31645); assay: [3H]IMI dissociation rate assay (allosteric potency), COS-7 membranes;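 for all read-outs here: radioligand pre-bound 30 min at room temperature to equilibrium, then dissociation followed over 5–70 min, ended by filtration through GF/B filters, at least three independent experiments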; format: binding; parameters: expressed in transfected cells; host or cells: COS-7; conditions: for VLZ Allosteric Potency SERT WT, [3H]IMI dissociation (Fig. 2C): ctrl = 1, replicates
# SERT WT [2] = molecular target: T1, SERT WT
# SERT WT [3] = molecular target: T1, SERT WT; assay: [3H]5-HT saturation uptake with increasing VLZ concentrations, COS-7 cells;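 for all read-outs here: transfected cells assayed 2 days post-transfection, 3 min uptake period, accumulated radioactivity counted in cell lysates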; format: cell-based; parameters: expressed in transfected cells; host or cells: COS-7; [3H]5-HT uptake (Fig. 2A [3H]5-HT Vmax):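 percent of the 5-HT Vmax measured without VLZ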; conditions: for [3H]5-HT uptake (Fig. 2A [3H]5-HT Vmax): replicates
# SERT = molecular target: T2, SERT (Homo sapiens, UniProt P31645); assay: [3H]S-CIT dissociation from SERT by VLZ in absence or presence of 10 µM Fab fragment; format: binding
# T2 construct: expressed in transfected cells; host or cells: membranes of COS-7 cells, transient transfection
# T2 sequence (P31645 whole entry, the tested form may be a part): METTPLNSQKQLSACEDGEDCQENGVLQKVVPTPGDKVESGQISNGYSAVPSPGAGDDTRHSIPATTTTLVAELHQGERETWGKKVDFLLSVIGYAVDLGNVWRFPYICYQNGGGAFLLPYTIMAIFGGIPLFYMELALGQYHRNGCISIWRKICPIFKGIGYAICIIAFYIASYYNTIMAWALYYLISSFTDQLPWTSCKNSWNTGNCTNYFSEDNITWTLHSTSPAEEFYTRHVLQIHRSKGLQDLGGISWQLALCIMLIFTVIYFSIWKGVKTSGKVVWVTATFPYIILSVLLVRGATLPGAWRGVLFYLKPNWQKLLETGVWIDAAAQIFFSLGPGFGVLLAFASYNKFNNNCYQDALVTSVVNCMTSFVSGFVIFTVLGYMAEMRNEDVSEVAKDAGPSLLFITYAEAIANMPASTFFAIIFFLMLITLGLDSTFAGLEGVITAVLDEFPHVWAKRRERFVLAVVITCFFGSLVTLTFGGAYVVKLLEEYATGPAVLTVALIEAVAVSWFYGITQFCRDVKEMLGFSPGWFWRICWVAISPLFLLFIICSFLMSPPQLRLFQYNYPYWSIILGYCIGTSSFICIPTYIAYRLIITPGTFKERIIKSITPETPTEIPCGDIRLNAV
# T1 sequence (P31645 whole entry): as the sequence (P31645 whole entry, the tested form may be a part) above
compound,measurement,setting,value
"N#Cc1ccc2[nH]cc(CCCCN3CCN(c4ccc5oc(C(N)=O)cc5c4)CC3)c2c1 [VLZ, Vilazodone]",[3H]IMI dissociation (Fig. 2B),"SERT WT [1]; 14 nM, time 50 min",89.4282
same,[3H]IMI dissociation (Fig. 2B),"SERT WT [1]; 14 nM, time 70 min",81.9514
same,[3H]IMI dissociation (Fig. 2B),"SERT WT [1]; 41 nM, time 5 min",97.9849
same,[3H]IMI dissociation (Fig. 2B),"SERT WT [1]; 41 nM, time 10 min",98.4954
same,[3H]IMI dissociation (Fig. 2B),"SERT WT [1]; 41 nM, time 15 min",97.2116
same,[3H]IMI dissociation (Fig. 2B),"SERT WT [1]; 41 nM, time 20 min",97.5521
same,[3H]IMI dissociation (Fig. 2B),"SERT WT [1]; 41 nM, time 30 min",96.6684
same,[3H]IMI dissociation (Fig. 2B),"SERT WT [1]; 41 nM, time 50 min",94.4925
same,[3H]IMI dissociation (Fig. 2B),"SERT WT [1]; 41 nM, time 70 min",87.7012
same,"VLZ Allosteric Potency SERT WT, [3H]IMI dissociation (Fig. 2C)",SERT WT [1]; Log[VLZ] (M) -4,0
same,"VLZ Allosteric Potency SERT WT, [3H]IMI dissociation (Fig. 2C)",SERT WT [1]; Log[VLZ] (M) -5.9101,0.1027 and 0.08972 and 0.1662 and 0.1172 and 0.01147
same,"VLZ Allosteric Potency SERT WT, [3H]IMI dissociation (Fig. 2C)",SERT WT [1]; Log[VLZ] (M) -6.38561,0.0801 and 0.09017 and 0.06116 and 0.2108 and 0.1226 and 0.07783 and 0.1748 and 0.1023
same,"VLZ Allosteric Potency SERT WT, [3H]IMI dissociation (Fig. 2C)",SERT WT [1]; Log[VLZ] (M) -6.86273,0.1665 and 0.2014 and 0.09755 and 0.4073 and 0.1925 and 0.0796 and 0.2088 and 0.1328
same,"VLZ Allosteric Potency SERT WT, [3H]IMI dissociation (Fig. 2C)",SERT WT [1]; Log[VLZ] (M) -7.33985,0.3329 and 0.2727 and 0.2322 and 0.5054 and 0.3314 and 0.3281 and 0.2598 and 0.3035 and 0.2526
same,"VLZ Allosteric Potency SERT WT, [3H]IMI dissociation (Fig. 2C)",SERT WT [1]; Log[VLZ] (M) -7.81697,0.6247 and 0.4843 and 0.4623 and 0.5542 and 0.4673 and 0.4013 and 0.468 and 0.4244
same,"VLZ Allosteric Potency SERT WT, [3H]IMI dissociation (Fig. 2C)",SERT WT [1]; Log[VLZ] (M) -8.29409,0.894 and 0.6671 and 0.6226 and 0.8075 and 0.7294 and 0.5156 and 0.7279 and 0.5418
same,"VLZ Allosteric Potency SERT WT, [3H]IMI dissociation (Fig. 2C)",SERT WT [1]; Log[VLZ] (M) -8.77121,0.9289 and 0.7744 and 0.7519 and 0.85 and 0.8487 and 0.773 and 0.7182 and 0.7591
same,Hill slope for inhibition of [3H]5-HT uptake,SERT WT [2],~ 2
same,[3H]5-HT uptake inhibition,SERT WT [2]; Log[VLZ] (M) -7.5,2.2056 and 2.462 and 3.034 and 2.528
same,[3H]5-HT uptake inhibition,SERT WT [2]; Log[VLZ] (M) -9.5,92.7238
same,[3H]5-HT uptake inhibition,SERT WT [2]; Log[VLZ] (M) -10,95.9437
same,[3H]5-HT uptake inhibition,SERT WT [2]; Log[VLZ] (M) -10.5,103.235
same,[3H]5-HT uptake inhibition,SERT WT [2]; Log[VLZ] (M) -11,103.321 and 85.9044
same,[3H]5-HT uptake (Fig. 2A [3H]5-HT Vmax),"SERT WT [3]; 1.0 nM VLZ, 5-HT 1000 nM",49.0825 and 65.883 and 64.0163
same,[3H]5-HT uptake (Fig. 2A [3H]5-HT Vmax),"SERT WT [3]; 1.0 nM VLZ, 5-HT 2000 nM",61.0408 and 86.9627 and 62.7549
same,[3H]5-HT uptake (Fig. 2A [3H]5-HT Vmax),"SERT WT [3]; 1.0 nM VLZ, 5-HT 3000 nM",66.441 and 97.8152 and 78.0502
same,[3H]5-HT uptake (Fig. 2A [3H]5-HT Vmax),"SERT WT [3]; 3.0 nM VLZ, 5-HT 1000 nM",33.7847 and 41.1475 and 28.2118 and 48.6535
same,[3H]5-HT uptake (Fig. 2A [3H]5-HT Vmax),"SERT WT [3]; 3.0 nM VLZ, 5-HT 2000 nM",43.7743 and 51.4964 and 36.278 and 58.2653
same,[3H]5-HT uptake (Fig. 2A [3H]5-HT Vmax),"SERT WT [3]; 3.0 nM VLZ, 5-HT 3000 nM",47.6029 and 61.8621 and 42.6502 and 66.7813
same,[3H]5-HT uptake (Fig. 2A [3H]5-HT Vmax),"SERT WT [3]; 3.8 nM VLZ, 5-HT 1000 nM",22.8758 and 41.0675 and 31.8704 and 40.9164 and 22.5758 and 39.1234
same,[3H]5-HT uptake (Fig. 2A [3H]5-HT Vmax),"SERT WT [3]; 3.8 nM VLZ, 5-HT 2000 nM",38.6315 and 55.6912 and 34.4535 and 55.6242 and 30.4203 and 47.6358
same,[3H]5-HT uptake (Fig. 2A [3H]5-HT Vmax),"SERT WT [3]; 3.8 nM VLZ, 5-HT 3000 nM",63.6765 and 45.9269 and 61.6646 and 33.1434 and 58.1985
same,[3H]5-HT uptake (Fig. 2A [3H]5-HT Vmax),"SERT WT [3]; 6.0 nM VLZ, 5-HT 1000 nM",12.5099 and 7.037 and 21.7589
same,[3H]5-HT uptake (Fig. 2A [3H]5-HT Vmax),"SERT WT [3]; 6.0 nM VLZ, 5-HT 2000 nM",13.9352 and 18.4437
same,[3H]5-HT uptake (Fig. 2A [3H]5-HT Vmax),"SERT WT [3]; 6.0 nM VLZ, 5-HT 3000 nM",16.6938 and 13.3777
same,[3H]5-HT uptake (Fig. 2A [3H]5-HT Vmax),"SERT WT [3]; 7.5 nM VLZ, 5-HT 1000 nM",14.9918 and 20.7791 and 1.755 and 5.881 and 9.304
same,[3H]5-HT uptake (Fig. 2A [3H]5-HT Vmax),"SERT WT [3]; 7.5 nM VLZ, 5-HT 2000 nM",20.8007 and 29.8638 and 2.631 and 9.704
same,[3H]5-HT uptake (Fig. 2A [3H]5-HT Vmax),"SERT WT [3]; 7.5 nM VLZ, 5-HT 3000 nM",31.591 and 10.2272 and 13.2803
same,[3H]5-HT uptake (Fig. 2A [3H]5-HT Vmax),"SERT WT [3]; 10 nM VLZ, 5-HT 1000 nM",11.1656 and 2.348 and 1.555 and 4.995
same,[3H]5-HT uptake (Fig. 2A [3H]5-HT Vmax),"SERT WT [3]; 10 nM VLZ, 5-HT 2000 nM",17.8898 and 3.041 and 8.84 and 7.029 and 9.965
same,[3H]5-HT uptake (Fig. 2A [3H]5-HT Vmax),"SERT WT [3]; 10 nM VLZ, 5-HT 3000 nM",19.1566 and 3.978 and 3.024
same,[3H]5-HT uptake (Fig. 2A [3H]5-HT Vmax),"SERT WT [3]; 15 nM VLZ, 5-HT 1000 nM",1.871 and 1.697 and 1.083 and 0.6379 and 0.8401 and 1.916
same,[3H]5-HT uptake (Fig. 2A [3H]5-HT Vmax),"SERT WT [3]; 15 nM VLZ, 5-HT 2000 nM",3.689 and 3.04 and 2.083 and 1.212 and 1.597 and 2.763
same,Mode of inhibition of [3H]5-HT transport,SERT WT [3]; VLZ 0–15 nM,non-competitive
same,5-HT VMAX (in % of no VLZ),SERT WT [3]; VLZ 1 nM,93 ± 13%
same,5-HT VMAX (in % of no VLZ),SERT WT [3]; VLZ 3.0 nM,66 ± 10%
same,5-HT VMAX (in % of no VLZ),SERT WT [3]; VLZ 3.8 nM,72 ± 17%
same,5-HT VMAX (in % of no VLZ),SERT WT [3]; VLZ 6.0 nM,21 ± 6%
same,5-HT VMAX (in % of no VLZ),SERT WT [3]; VLZ 7.5 nM,18 ± 8%
same,5-HT VMAX (in % of no VLZ),SERT WT [3]; VLZ 10 nM,11 ± 5%
same,5-HT VMAX (in % of no VLZ),SERT WT [3]; VLZ 15 nM,3.4 ± 1.2%
same,5-HT VMAX (in % of no VLZ),SERT WT [3]; VLZ […],98 ± 10%
same,Effect of Fab fragment on allosteric potency of VLZ ([3H]S-CIT dissociation),"SERT; 10 µM Fab, n = 1",no apparent effect; also recorded: unaffected
same,Fab fragment VLZ allostery w [3H]S-CIT Dissoc (Suppl. Fig 3B),"SERT; SERT WT, Log[VLZ] (M) -4, ctrl 0.9997",0
same,Fab fragment VLZ allostery w [3H]S-CIT Dissoc (Suppl. Fig 3B),"SERT; SERT WT, Log[VLZ] (M) -6.046, ctrl 0.9997",0.25
same,Fab fragment VLZ allostery w [3H]S-CIT Dissoc (Suppl. Fig 3B),"SERT; SERT WT, Log[VLZ] (M) -6.523, ctrl 0.9997",0.5086
same,Fab fragment VLZ allostery w [3H]S-CIT Dissoc (Suppl. Fig 3B),"SERT; SERT WT, Log[VLZ] (M) -7, ctrl 0.9997",0.7481
same,Fab fragment VLZ allostery w [3H]S-CIT Dissoc (Suppl. Fig 3B),"SERT; w. Fab fragment, Log[VLZ] (M) -6.046, ctrl 0.9993",0.2288
same,Fab fragment VLZ allostery w [3H]S-CIT Dissoc (Suppl. Fig 3B),"SERT; w. Fab fragment, Log[VLZ] (M) -6.523, ctrl 0.9993",0.3777
same,Fab fragment VLZ allostery w [3H]S-CIT Dissoc (Suppl. Fig 3B),"SERT; w. Fab fragment, Log[VLZ] (M) -7, ctrl 0.9993",0.7313
